# Test system: Pyrenophora teres
# Assay: Pyrenophora teres test (barley)/shoot treatment, field experiment
# Type: in vivo, Pyrenophora teres on barley
# Conditions: shoot treatment after flag leaf emergence, 62.5 g/ha, scoring long-term effect, 41 days post-application
# Procedure: Pyrenophora teres Test (Barley)/shoot Treatment, Field Experiment
# To prepare a suitable preparation of active substance, a “commercially available” formulation of active substance or active substance combination is diluted with water to give the desired concentration.
# The active substance preparation is applied at the application rate stated, after the flag leaf has emerged.
# The evaluation is carried out at the point in time at which the disease symptoms are complete and readily recognizable. In this context, 0% means an efficacy which corresponds to that of the control, while an efficacy of 100% means that no disease is observed.
# The expected efficacy in % of the untreated control was calculated using the equation
# In this equation, x and y mean the efficacy—expressed in % of the untreated control—which the two products achieve when applied separately. If the actual efficacy of the active substance combination exceeds the value for the expected efficacy (E) as calculated by the above formula, then the effect is superadditive, i.e. a synergistic effect exists.
smiles,measurement,value
"Cn1cc(C(=O)Nc2ccc(F)cc2-c2ccc(Cl)c(Cl)c2)c(C(F)F)n1 [III-23, N-(3′,4′-dichloro-5-fluoro-1,1′-biphenyl-2-yl)-3-(difluoromethyl)-1-methyl-1H-pyrazole-4-carboxamide]",Efficacy in % found,40%
